Measured values: patent US4048167A, “N,N-disubstituted derivatives of 3-carboxamide or 3-thiocarboxamide-7-(3-chloro-2-propenyl)-1,3,5,7-tetraazabicyclo(3.3.1) nonane and preparation II” (The Dow Chemical Company, priority 1976, dated 1977)
≈ marks a conversion by molar mass, not a printed value.

These molecules were tested on mentagrophytes (assay: agar Petri dish dilution test, mentagrophytes). Settings: not given.
Assay type: cell-based
In the case of O=C(N1CN2CN(C/C=C\Cl)CN(C2)C1)N(c1ccccc1)c1ccccc1 [Example 2 b.], the MIC was 100 µg/mL (≈ 251 µM). In the case of CN(C)C(=O)N1CN2CN(C/C=C\Cl)CN(C2)C1 [Example 1, N,N-Dimethyl-3-Carboxamide-7-cis-(3-Chloro-2-Propenyl)-1,3,5,7-Tetraazabicyclo(3.3.1)Nonane], the MIC was 100 µg/mL (≈ 365 µM). For CCN(CC)C(=O)N1CN2CN(C/C=C\Cl)CN(C2)C1 [Example 2 a.], the MIC was 100 µg/mL (≈ 331 µM). CN(C)C(=S)N1CN2CN(C/C=C\Cl)CN(C2)C1 [Example 2 d.] gave an MIC of 100 µg/mL (≈ 345 µM). For CN(C(=O)N1CN2CN(C/C=C\Cl)CN(C2)C1)c1ccccc1 [Example 2 c.], the MIC was 100 µg/mL (≈ 298 µM).

Each molecule was assayed on Pseudomas Species Str. 10 (assay: agar Petri dish dilution test, Pseudomas Species Str. 10). Settings: read-out: MIC, Ps.
Assay type: cell-based
Molecule O=C(N1CN2CN(C/C=C\Cl)CN(C2)C1)N(c1ccccc1)c1ccccc1 [Example 2 b.] has an MIC of 500 µg/mL (≈ 1260 µM). With CN(C)C(=O)N1CN2CN(C/C=C\Cl)CN(C2)C1 [Example 1, N,N-Dimethyl-3-Carboxamide-7-cis-(3-Chloro-2-Propenyl)-1,3,5,7-Tetraazabicyclo(3.3.1)Nonane] the MIC was 500 µg/mL (≈ 1830 µM). Molecule CN(C)C(=S)N1CN2CN(C/C=C\Cl)CN(C2)C1 [Example 2 d.] has an MIC of 500 µg/mL (≈ 1730 µM). With CN(C(=O)N1CN2CN(C/C=C\Cl)CN(C2)C1)c1ccccc1 [Example 2 c.] the MIC was 500 µg/mL (≈ 1490 µM).

These molecules were tested on A. aerogenes (assay: agar Petri dish dilution test, A. aerogenes). Settings: Klebsiella aerogenes.
Assay type: cell-based
In the case of O=C(N1CN2CN(C/C=C\Cl)CN(C2)C1)N(c1ccccc1)c1ccccc1 [Example 2 b.], the MIC was 500 µg/mL (≈ 1260 µM). Molecule CN(C)C(=O)N1CN2CN(C/C=C\Cl)CN(C2)C1 [Example 1, N,N-Dimethyl-3-Carboxamide-7-cis-(3-Chloro-2-Propenyl)-1,3,5,7-Tetraazabicyclo(3.3.1)Nonane] has an MIC of 100 µg/mL (≈ 365 µM). CCN(CC)C(=O)N1CN2CN(C/C=C\Cl)CN(C2)C1 [Example 2 a.] gave an MIC of 100 µg/mL (≈ 331 µM). Work on CN(C)C(=S)N1CN2CN(C/C=C\Cl)CN(C2)C1 [Example 2 d.] yielded an MIC of 500 µg/mL (≈ 1730 µM). Molecule CN(C(=O)N1CN2CN(C/C=C\Cl)CN(C2)C1)c1ccccc1 [Example 2 c.] has an MIC of 500 µg/mL (≈ 1490 µM).

Each molecule was assayed on M. phlei (assay: agar Petri dish dilution test, M. phlei). Settings: Mycolicibacterium phlei.
Assay type: cell-based
O=C(N1CN2CN(C/C=C\Cl)CN(C2)C1)N(c1ccccc1)c1ccccc1 [Example 2 b.] was tested, and the MIC was 500 µg/mL (≈ 1260 µM). In the case of CN(C)C(=O)N1CN2CN(C/C=C\Cl)CN(C2)C1 [Example 1, N,N-Dimethyl-3-Carboxamide-7-cis-(3-Chloro-2-Propenyl)-1,3,5,7-Tetraazabicyclo(3.3.1)Nonane], the MIC was 500 µg/mL (≈ 1830 µM). For CCN(CC)C(=O)N1CN2CN(C/C=C\Cl)CN(C2)C1 [Example 2 a.], the MIC was 500 µg/mL (≈ 1660 µM). With CN(C)C(=S)N1CN2CN(C/C=C\Cl)CN(C2)C1 [Example 2 d.] the MIC was 500 µg/mL (≈ 1730 µM). With CN(C(=O)N1CN2CN(C/C=C\Cl)CN(C2)C1)c1ccccc1 [Example 2 c.] the MIC was 500 µg/mL (≈ 1490 µM).

These molecules were tested on B. subtilis (assay: agar Petri dish dilution test, B. subtilis). Settings: Bacillus subtilis.
Assay type: cell-based
O=C(N1CN2CN(C/C=C\Cl)CN(C2)C1)N(c1ccccc1)c1ccccc1 [Example 2 b.] was tested, and the MIC was 500 µg/mL (≈ 1260 µM). Molecule CN(C)C(=O)N1CN2CN(C/C=C\Cl)CN(C2)C1 [Example 1, N,N-Dimethyl-3-Carboxamide-7-cis-(3-Chloro-2-Propenyl)-1,3,5,7-Tetraazabicyclo(3.3.1)Nonane] has an MIC of 100 µg/mL (≈ 365 µM). Work on CCN(CC)C(=O)N1CN2CN(C/C=C\Cl)CN(C2)C1 [Example 2 a.] yielded an MIC of 100 µg/mL (≈ 331 µM). CN(C)C(=S)N1CN2CN(C/C=C\Cl)CN(C2)C1 [Example 2 d.] was tested, and the MIC was 100 µg/mL (≈ 345 µM). With CN(C(=O)N1CN2CN(C/C=C\Cl)CN(C2)C1)c1ccccc1 [Example 2 c.] the MIC was 500 µg/mL (≈ 1490 µM).

These molecules were tested on S. aureus (assay: agar Petri dish dilution test, S. aureus). Settings: Staphylococcus aureus.
Assay type: cell-based
O=C(N1CN2CN(C/C=C\Cl)CN(C2)C1)N(c1ccccc1)c1ccccc1 [Example 2 b.] showed an MIC of 500 µg/mL (≈ 1260 µM). For CN(C)C(=O)N1CN2CN(C/C=C\Cl)CN(C2)C1 [Example 1, N,N-Dimethyl-3-Carboxamide-7-cis-(3-Chloro-2-Propenyl)-1,3,5,7-Tetraazabicyclo(3.3.1)Nonane], the MIC was 500 µg/mL (≈ 1830 µM). CCN(CC)C(=O)N1CN2CN(C/C=C\Cl)CN(C2)C1 [Example 2 a.] was tested, and the MIC was 500 µg/mL (≈ 1660 µM). For CN(C)C(=S)N1CN2CN(C/C=C\Cl)CN(C2)C1 [Example 2 d.], the MIC was 500 µg/mL (≈ 1730 µM). CN(C(=O)N1CN2CN(C/C=C\Cl)CN(C2)C1)c1ccccc1 [Example 2 c.] showed an MIC of 500 µg/mL (≈ 1490 µM).

The molecules below were run on E. coli (assay: agar Petri dish dilution test, E. coli). Settings: Escherichia coli.
Assay type: cell-based
In the case of O=C(N1CN2CN(C/C=C\Cl)CN(C2)C1)N(c1ccccc1)c1ccccc1 [Example 2 b.], the MIC was 500 µg/mL (≈ 1260 µM). CN(C)C(=O)N1CN2CN(C/C=C\Cl)CN(C2)C1 [Example 1, N,N-Dimethyl-3-Carboxamide-7-cis-(3-Chloro-2-Propenyl)-1,3,5,7-Tetraazabicyclo(3.3.1)Nonane] gave an MIC of 500 µg/mL (≈ 1830 µM). CCN(CC)C(=O)N1CN2CN(C/C=C\Cl)CN(C2)C1 [Example 2 a.] showed an MIC of 100 µg/mL (≈ 331 µM). CN(C)C(=S)N1CN2CN(C/C=C\Cl)CN(C2)C1 [Example 2 d.] gave an MIC of 500 µg/mL (≈ 1730 µM). With CN(C(=O)N1CN2CN(C/C=C\Cl)CN(C2)C1)c1ccccc1 [Example 2 c.] the MIC was 500 µg/mL (≈ 1490 µM).
